Assay results published in ChEMBL document CHEMBL1147742, “Design and synthesis of photoaffinity-labeling ligands of the L-prolyl-L-leucylglycinamide binding site involved in the allosteric modulation of the dopamine receptor” (J Med Chem, 2006).
Active and inactive are the calls of the source. The calls are words filed in the database; no cut-off is given here. Where a SMILES comes first, the peptide text is derived from it.

The molecules below were run against D(2) dopamine receptor (Bos taurus) (UniProt P20288) (assay: Stimulation of [3H]NPA binding to dopamine D2 receptor from bovine striatal membranes in presence of photoaffinity-labeling agents). Details: not given.
D(2) dopamine receptor (Bos taurus), sequence (P20288 whole entry): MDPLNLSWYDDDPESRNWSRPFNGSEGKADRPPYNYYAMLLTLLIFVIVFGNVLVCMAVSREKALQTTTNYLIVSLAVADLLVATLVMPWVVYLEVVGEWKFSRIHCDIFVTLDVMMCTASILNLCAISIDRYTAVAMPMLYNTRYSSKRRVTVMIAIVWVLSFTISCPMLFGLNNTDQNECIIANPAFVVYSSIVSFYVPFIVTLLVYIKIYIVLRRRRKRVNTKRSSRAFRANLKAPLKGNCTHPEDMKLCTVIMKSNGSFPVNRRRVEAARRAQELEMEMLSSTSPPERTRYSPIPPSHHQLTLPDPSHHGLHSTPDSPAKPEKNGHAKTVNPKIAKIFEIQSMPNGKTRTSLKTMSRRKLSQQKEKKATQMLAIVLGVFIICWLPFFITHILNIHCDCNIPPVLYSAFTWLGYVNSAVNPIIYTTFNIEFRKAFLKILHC
CC(C)C[C@H](NC(=O)[C@@H]1CCCN1)C(=O)NCC(N)=O (H-Pro-Leu-Gly-NH2) was tested, and the Activity was “inactive”.
In the case of NC(=O)CN1CC[C@@H](NC(=O)[C@@H]2CCCN2)C1=O, the Activity is reported as “inactive”.

What follows are molecules tested against D(2) dopamine receptor (Bos taurus) (UniProt P20288) (assay: Stimulation of [3H]NPA binding to dopamine D2 receptor in bovine striatal membranes). Details: Striatum, Membrane.
Format: cell membranes
[N-]=[N+]=Nc1cc(O)c(C(=O)NCCNC(=O)CN2CC[C@@H](NC(=O)[C@@H]3CCCN3)C2=O)cc1I was tested, and the Activity was “Active”.
[N-]=[N+]=Nc1ccc(C(=O)N[C@@H]2CN[C@H](C(=O)N[C@@H]3CCN(CC(N)=O)C3=O)C2)c(O)c1 was tested, and the Activity was “Active”.
With [N-]=[N+]=Nc1cc(O)c(C(=O)N[C@@H]2CN[C@H](C(=O)N[C@@H]3CCN(CC(N)=O)C3=O)C2)cc1I the Activity was “Active”.
[N-]=[N+]=Nc1ccc(C(=O)N[C@H]2CN[C@H](C(=O)N[C@@H]3CCN(CC(N)=O)C3=O)C2)c(O)c1 was tested, and the Activity was “Active”.
CC(C)C[C@H](NC(=O)[C@@H]1CCCN1)C(=O)NCC(N)=O (H-Pro-Leu-Gly-NH2) was tested, and the Activity was 24.5%.
For [N-]=[N+]=Nc1ccc(C(=O)NCCNC(=O)CN2CC[C@@H](NC(=O)[C@@H]3CCCN3)C2=O)cc1, the Activity was “Active”.
NC(=O)CN1CC[C@@H](NC(=O)[C@@H]2CCCN2)C1=O gave an Activity of 51.1%.
In the case of [N-]=[N+]=Nc1ccc(C(=O)NCCNC(=O)CN2CC[C@@H](NC(=O)[C@@H]3CCCN3)C2=O)c(O)c1, the Activity is reported as “Active”.
For [N-]=[N+]=Nc1ccc(C(=O)N[C@@H]2CN[C@H](C(=O)N[C@@H]3CCN(CC(N)=O)C3=O)C2)cc1, the Activity was “Active”.
For [N-]=[N+]=Nc1ccc(C(=O)N[C@H]2CN[C@H](C(=O)N[C@@H]3CCN(CC(N)=O)C3=O)C2)cc1, the Activity was “Active”.
